{"source": "patent EP0390673A1", "about": "“5-Acyl-benzoxazolinone derivatives, processes for their preparation and pharmaceutical compositions containing them” (ADIR ET COMPAGNIE, priority 1989, dated 1990)", "system": "souris", "assay": "Analgesic activity, Siegmund test (phenyl-p-benzoquinone-induced stretching)", "format": "in vivo", "details": "Mus musculus; oral, 1 hour before i.p. phényl-p-benzoquinone 0,02 %; stretches counted between minutes 5 and 10; read-out: ED₅₀, dose entraînant une activité de 50%", "description": "L'activité sur la douleur a été recherchée chez la souris (23-25 g) selon un protocole dérivé de la technique décrite par SIEGMUND (SIEGMUND E.A., R.A. CADMUS & GOLU, J. Pharm. Exp. Ther. 119, 1874, 1954). Les souris, réparties par randomisation en lots de 12 animaux, ont reçu le traitement par voie orale (excipient pour les témoins) 1 heure avant l'injection intra-péritonéale d'une solution hydroalcoolique de phényl-p-benzoquinone (Sigma) à 0,02 %. Les étirements sont dénombrés entre la 5ème et 10ème minute après l'injection.\nLe pourcentage d'activité obtenu a été évalué pour chaque dose (% de diminution du nombre d'étirements chez les traités par rapport aux témoins). Une ED₅₀, dose entraînant une activité de 50%, a été déterminée pour chaque produit."}
{"compound": "O=C(c1ccccc1)c1ccc2oc(=O)[nH]c2c1", "note": "[Exemple 1, BENZOYL-5 BENZOXAZOLINONE]", "values": [{"measurement": "ED50", "result": "~5", "unit": "mg/kg"}]}
